Article PMC5760734, “Development of an oral once-weekly drug delivery system for HIV antiretroviral therapy” (Nature Communications, 2018)
Where two headings read alike, the source gives them in different places.

Tests used:
[1] = tested on: drug-resistant HIV strains; conditions: cited from earlier work
[2] = Drug stability in simulated gastric fluid (SGF), HPLC; conditions: SGF pH ~1.2, 37 °C, 24 h, salt forms
Method: To determine drug stability at low pH, the drugs were dissolved in methanol to form a concentrated stock solution. Methanol solutions were then diluted 20-fold in simulated gastric fluid, USP without pepsin (pH ~1.2; henceforth referred to as SGF). Drug solutions were then placed in a shaker incubator (New Brunswick™ Innova® 44, Eppendorf, USA) at 37 °C and 150 r.p.m. At various times, aliquots were withdrawn and stored at −20 °C until analysis. Drug concentrations in the solution were analysed using HPLC and reported as percent of the initial concentrations.
The output signal was monitored and processed using ChemStation® software (Agilent Technologies Inc., USA). Chromatographic separation was carried out on a 50 mm × 4.6 mm EC-C18 Agilent Poroshell 120 analytical column with 2.7 µm spherical particles.
The injection volume was 5 µL, and the UV detection wavelength of 260 nm was selected.
For RPV, the stationary phase was maintained at 40 °C. The mobile phase consisted of methanol: water (pH 3.5 adjusted with 0.1% formic acid) (43:57 v/v) at a flow rate of 0.9 mL/min over a 10 min run time. The injection volume was 20 µL, and the UV detector was set at 290 nm.
For CAB, the column was maintained at 45 °C and the optimized mobile phase consisted of acetonitrile: water (pH 3.5 adjusted with 0.1% formic acid) (30:70 v/v) at flow rate of 0.8 mL/min over an 8 min run time. For analysis, 5 µL of the sample was injected on to the column, and the samples were analysed at a wavelength of 260 nm.
For tenofovir alafenamide, the column was maintained at 22 °C. The mobile phase consisted initially of acetonitrile: water (pH 3.5 adjusted with 0.1% formic acid) (100:0 v/v). […] The flow rate was 0.6 mL/min and the run time was 8 min. The injection volume was 10 µL, and the UV detection wavelength of 260 nm was selected.

[3] = set-up: method as in ref 58 (a number printed in a supplementary file, which may have a reference list of its own: not looked up in the article's list); conditions: cited from earlier work

Structure (SMILES): C[C@@H]1CCO[C@H]2Cn3cc(C(=O)NCc4ccc(F)cc4F)c(=O)c(O)c3C(=O)N12 [DTG, dolutegravir]
- Fold change in IC50 (ρ) ([1]; mutation E138K/Q148K): 19.00
- Fold change in IC50 (ρ) ([1]; mutation E138K): 0.40
- Fold change in IC50 (ρ) ([1]; mutation E157Q/R263K): 19.90
- Fold change in IC50 (ρ) ([1]; mutation E157Q): 0.01
- Fold change in IC50 (ρ) ([1]; mutation G140S/Q148R): 7.98
- Fractional change in slope (σ) ([1]; mutation G140S/Q148R): 0.01
- Fold change in IC50 (ρ) ([1]; mutation G140S): 0.76
- Fractional change in slope (σ) ([1]; mutation G140S): -0.01
- Fold change in IC50 (ρ) ([1]; mutation H51Y/R263K): 6.95
- Fold change in IC50 (ρ) ([1]; mutation H51Y): 1.25
- Fold change in IC50 (ρ) ([1]; mutation M50I/R263K): 15.59
- Fold change in IC50 (ρ) ([1]; mutation M50I): 1.94
- Fold change in IC50 (ρ) ([1]; mutation N155H): 1.96
- Fold change in IC50 (ρ) ([1]; mutation Q148K): 1.10
- Fold change in IC50 (ρ) ([1]; mutation Q148R/N155H): 10.00
- Fold change in IC50 (ρ) ([1]; mutation Q148R): 1.20
- Fold change in IC50 (ρ) ([1]; mutation R263K): 2.00
- stability in SGF [2]: stable
- Half-life, τ1/2 [3]: 14 h
- Cmax ([3]; maximum plasma concentration at steady state, perfect adherence): 8.75 µM
